Experiments:
[1] = Metabolic stability in human liver microsomes; format: in vitro ADME; settings: LM Clint (intrinsic clearance); 1 μM test compound, 0.5 mg protein/mL microsome, 37° C., up to 60 min
Experimental: 2.1. Test Compound and Control Working Solution Preparation: Working solution: 5 µL of compound and control stock solution (10 mM in dimethyl sulfoxide (DMSO)) were diluted with 495 μL of acetonitrile (ACN) (intermediate solution concentration: 100 μM, 99% ACN).
2.2.1. […] 2.2.2. Preparation Procedure: The appropriate amount of NADPH powder were weighed and diluted into a 10 mM MgCl2 solution (working solution concentration: 10 unit/mL; final concentration in reaction system: 1 unit/mL).
2.3.2. Preparation Procedure: The appropriate concentrations of microsome working solutions were prepared in 100 mM potassium phosphate buffer. 2.4. Stop Solution Preparation: Cold (4° C.) acetonitrile (ACN) containing 200 ng/mL tolbutamide and 200 ng/mL labetalol as internal standards (IS) were used as the stop solution.
2.5.1. Pre-warm empty ‘Incubation’ plates T60 and NCF60 for 10 min minutes. 2.5.2. Liver microsomes were diluted to 0.56 mg/mL in 100 mM phosphate buffer. 2.5.3. 445 uL microsome working solutions (0.56 mg/mL) were transferred into pre-warmed ‘Incubation’ plates T60 and NCF60. Then ‘Incubation’ plates T60 and NCF60 were pre-incubated for 10 min at 37° C. with constant shaking. 54 μL liver microsomes were transferred to blank plate, then 6 μL NAPDH cofactor were added to the blank plate, and then 180 μL quenching solution can be added to blank plate. 2.5.4 5 μL compound working solution (100 μM) were added into ‘incubation’ plates (T60 and NCF60) containing microsomes and mix 3 times thoroughly. 2.5.5. For the NCF60 plate, 50 uL of buffer were added and were mixed 3 times thoroughly. Start timing; plate was incubated at 37° C. for 60 min while shaking. 2.5.6. In ‘Quenching’ plate TO, 180 μL quenching solution were added and 6 μL NAPDH cofactor were added. Ensured the plate was chilled to prevent evaporation. 2.5.7. For the T60 plate, were mixed 3 times thoroughly, and immediately removed 54 μL mixture for the 0-min time point to ‘Quenching’ plate. Then 44 μL NAPDH cofactor were added to incubation plate (T60). Start timing; plate were incubated at 37° C. for 60 min while shaking.
2.5.8. At 5, 10, 20, 30, and 60 min, 180 μL quenching solution were added to ‘Quenching’ plates, mix once, and were serially transferred 60 μL sample from T60 plate per time point to ‘Quenching’ plates.
2.5.9. For NCF60: were mixed once, and 60 μL sample were transferred from the NCF60 incubation to ‘Quenching’ plate containing quenching solution at the 60-min time point.
2.5.10. All sampling plates were shaken for 10 min, then centrifuged at 4000 rpm for 20 minutes at 4° C. 2.5.11. 80 μL supernatant were transferred into 240 μL HPLC water, and were mixed by plate shaker for 10 min. 2.5.12. Each bioanalysis plate were sealed and shaken for 10 minutes prior to LC-MS/MS analysis.
3.1. The equation of first order kinetics were used to calculate T1/2 and Intrinsic clearance (CLint mic) in (μL/min/mg).
Equation of first order kinetic.

[2] = target: T1, TNIK kinase [amino acid sequence (1-367), Invitrogen] (Homo sapiens, UniProt Q9UKE5); assay: TNIK kinase inhibition assay (Z-lyte FRET-peptide); format: biochemical; settings: 0.625 nM TNIK kinase, 2 μM Ser/Thr 7 peptide, 64 μM ATP, one hour at room temperature
T1 construct: purchased Invitrogen
T1 sequence (Q9UKE5 1-367): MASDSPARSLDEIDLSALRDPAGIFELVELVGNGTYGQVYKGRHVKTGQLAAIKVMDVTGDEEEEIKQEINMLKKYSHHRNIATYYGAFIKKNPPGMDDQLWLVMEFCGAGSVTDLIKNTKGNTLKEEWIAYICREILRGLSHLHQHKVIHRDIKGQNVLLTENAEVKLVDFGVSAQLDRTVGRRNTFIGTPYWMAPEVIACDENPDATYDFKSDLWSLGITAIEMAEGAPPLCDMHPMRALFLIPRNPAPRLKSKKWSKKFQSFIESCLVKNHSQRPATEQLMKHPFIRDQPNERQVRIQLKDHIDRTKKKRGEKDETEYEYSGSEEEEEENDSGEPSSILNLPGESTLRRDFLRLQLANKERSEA

| Human Liver Microsome (μM/min/mg) [1] | IC50 [2] | SMILES |
| --- | --- | --- |
| ++ (10-100 μM/min/mg as ++) | 1 to 12 nM | CC(C)n1cnc(-c2ccc(F)cc2)c1-c1nc(C(=O)Nc2ccc(N3CCN(C)CC3)cn2)c[nH]1 [Compound 21, 5′-(4-fluorophenyl)-3′-isopropyl-N-(5-(4-methylpiperazin-1-yl)pyridin-2-yl)-1H,3′H-[2,4′-biimidazole]-4-carboxamide] |
| ++ (10-100 μM/min/mg as ++) | 12 to 150 nM | CN1CCN(c2ccc(NC(=O)c3c[nH]c(-c4c(-c5ccc(F)cc5)ncn4C4CCC4)n3)cc2)CC1 [Compound 26, 3′-cyclobutyl-5′-(4-fluorophenyl)-N-(4-(4-methylpiperazin-1-yl)phenyl)-1H,3′H-[2,4′-biimidazole]-4-carboxamide] |
| + (>100 μM/min/mg as +) | 1 to 12 nM | CC(C)n1cnc(-c2ccc(F)cc2)c1-c1nc(C(=O)Nc2ccc(N3CCN(C)CC3)cc2F)co1 [Compound 28, N-(2-fluoro-4-(4-methylpiperazin-1-yl)phenyl)-2-(4-(4-fluorophenyl)-1-isopropyl-1H-imidazol-5-yl)oxazole-4-carboxamide] |
| ++ (10-100 μM/min/mg as ++) | 1 to 12 nM | CC(C)n1cnc(-c2ccc(F)cc2)c1-c1nc(C(=O)Nc2ccc(C3CN(C)C3)cn2)cs1 [Compound 30, 2-(4-(4-fluorophenyl)-1-isopropyl-1H-imidazol-5-yl)-N-(5-(1-methylazetidin-3-yl)pyridin-2-yl)thiazole-4-carboxamide] |
| ++ (10-100 μM/min/mg as ++) | 12 to 150 nM | CC(C)c1noc(-c2ccc(F)cc2)c1-c1nc(C(=O)Nc2ccc(C3COC3)cc2F)cs1 [Compound 31, N-(2-fluoro-4-(oxetan-3-yl)phenyl)-2-(5-(4-fluorophenyl)-3-isopropylisoxazol-4-yl)thiazole-4-carboxamide] |
| ++ (10-100 μM/min/mg as ++) | 1 to 12 nM | CN1CCN(c2ccc(NC(=O)c3csc(-c4c(-c5ccc(F)cc5)ncn4C4CC4)n3)nc2)CC1 [Compound 42, 2-(1-cyclopropyl-4-(4-fluorophenyl)-1H-imidazol-5-yl)-N-(5-(4-methylpiperazin-1-yl)pyridin-2-yl)thiazole-4-carboxamide] |
| + (>100 μM/min/mg as +) | 1 to 12 nM | CC(C)n1cnc(-c2ccc(F)cc2)c1-c1nc(C(=O)Nc2ccc3c(n2)CN(C)CC3)cs1 [Compound 43, 2-(4-(4-fluorophenyl)-1-isopropyl-1H-imidazol-5-yl)-N-(7-methyl-5,6,7,8-tetrahydro-1,7-naphthyridin-2-yl)thiazole-4-carboxamide] |
| ++ (10-100 μM/min/mg as ++) | 1 to 12 nM | CC(C)n1cnc(-c2ccc(F)cc2)c1-c1nc(C(=O)Nc2ccc(C3CCOCC3)cn2)c[nH]1 [Compound 53, 5′-(4-fluorophenyl)-3′-isopropyl-N-(5-(tetrahydro-2H-pyran-4-yl)pyridin-2-yl)-1H,3′H-[2,4′-biimidazole]-4-carboxamide] |
| ++ (10-100 μM/min/mg as ++) | 1 to 12 nM | CC(C)n1cnc(-c2ccc(F)cc2)c1-c1nc(C(=O)Nc2ccc(C3COC3)cn2)c[nH]1 [Compound 54, 5′-(4-fluorophenyl)-3′-isopropyl-N-(5-(oxetan-3-yl)pyridin-2-yl)-1H,3′H-[2,4′-biimidazole]-4-carboxamide] |
| ++ (10-100 μM/min/mg as ++) | 1 to 12 nM | CC(C)n1cnc(-c2ccc(F)cc2)c1-c1nc(C(=O)Nc2ccc(C3COC3)cc2F)c[nH]1 [Compound 55, N-(2-fluoro-4-(oxetan-3-yl)phenyl)-5′-(4-fluorophenyl)-3′-isopropyl-1H,3′H-[2,4′-biimidazole]-4-carboxamide] |
| + (>100 μM/min/mg as +) | 1 to 12 nM | CC(C)n1cnc(-c2ccc(F)cc2)c1-c1nc(C(=O)Nc2ccc3c(c2)CN(C)CC3)cs1 [Compound 56, 2-(4-(4-fluorophenyl)-1-isopropyl-1H-imidazol-5-yl)-N-(2-methyl-1,2,3,4-tetrahydroisoquinolin-7-yl)thiazole-4-carboxamide] |
| + (>100 μM/min/mg as +) | 1 to 12 nM | CC(C)n1cnc(-c2ccc(F)cc2)c1-c1nc(C(=O)Nc2ccc(C3COC3)cn2)cs1 [Compound 57, 2-(4-(4-fluorophenyl)-1-isopropyl-1H-imidazol-5-yl)-N-(5-(oxetan-3-yl)pyridin-2-yl)thiazole-4-carboxamide] |
| ++ (10-100 μM/min/mg as ++) | 1 to 12 nM | CC(C)n1cnc(-c2ccc(F)cc2)c1-c1nc(C(=O)Nc2ccc(C3CN(C)C3)cc2F)cs1 [Compound 58, N-(2-fluoro-4-(1-methylazetidin-3-yl)phenyl)-2-(4-(4-fluorophenyl)-1-isopropyl-1H-imidazol-5-yl)thiazole-4-carboxamide] |

| SMILES | Human Liver Microsome (μM/min/mg) [1] | IC50 [2] |
| --- | --- | --- |
| CC(C)n1cnc(-c2ccc(F)cc2)c1-c1nc(C(=O)Nc2ccc(N3CC4CC(C3)N4C)cc2)c[nH]1 [Compound 23, 5′-(4-fluorophenyl)-3′-isopropyl-N-(4-(6-methyl-3,6-diazabicyclo[3.1.1]heptan-3-yl)phenyl)-1H,3′H-[2,4′-biimidazole]-4-carboxamide] | ++ (10-100 μM/min/mg as ++) | 1 to 12 nM |
| CC(C)n1cnc(-c2ccc(F)cc2)c1-c1nc(C(=O)Nc2ccc(N3C[C@H]4CC[C@@H](C3)N4C)cn2)c[nH]1 [Compound 24, 5′-(4-fluorophenyl)-3′-isopropyl-N-(5-((1R,5S)-8-methyl-3,8-diazabicyclo[3.2.1]octan-3-yl)pyridin-2-yl)-1H,3′H-[2,4′-biimidazole]-4-carboxamide] | ++ (10-100 μM/min/mg as ++) | 1 to 12 nM |
| CC(C)n1cnc(-c2ccc(F)cc2)c1-c1nc(C(=O)Nc2ccc(N3C[C@H]4CC[C@@H](C3)N4C)cn2)co1 [Compound 40, 2-(4-(4-fluorophenyl)-1-isopropyl-1H-imidazol-5-yl)-N-(5-((1R,5S)-8-methyl-3,8-diazabicyclo[3.2.1]octan-3-yl)pyridin-2-yl)oxazole-4-carboxamide] | + (>100 μM/min/mg as +) | 1 to 12 nM |
| CC(C)n1cnc(-c2ccc(F)cc2)c1-c1nc(C(=O)Nc2ccc(N3C[C@H]4CC[C@@H](C3)N4C)cn2)cs1 [Compound 41, 2-(4-(4-fluorophenyl)-1-isopropyl-1H-imidazol-5-yl)-N-(5-((1R,5S)-8-methyl-3,8-diazabicyclo[3.2.1]octan-3-yl)pyridin-2-yl)thiazole-4-carboxamide] | ++ (10-100 μM/min/mg as ++) | 1 to 12 nM |
| CC(C)n1cnc(-c2ccc(F)cc2)c1-c1nc(C(=O)Nc2ccc(N3CC4CC(C3)N4C)cn2)cs1 [Compound 44, 2-(4-(4-fluorophenyl)-1-isopropyl-1H-imidazol-5-yl)-N-(5-(6-methyl-3,6-diazabicyclo[3.1.1]heptan-3-yl)pyridin-2-yl)thiazole-4-carboxamide] | ++ (10-100 μM/min/mg as ++) | 1 to 12 nM |
| CN1C2CC1CN(c1ccc(NC(=O)c3csc(-c4c(-c5ccc(F)cc5)ncn4C4CC4)n3)nc1)C2 [Compound 45, 2-(1-cyclopropyl-4-(4-fluorophenyl)-1H-imidazol-5-yl)-N-(5-(6-methyl-3,6-diazabicyclo[3.1.1]heptan-3-yl)pyridin-2-yl)thiazole-4-carboxamide] | ++ (10-100 μM/min/mg as ++) | 1 to 12 nM |
| CN1[C@@H]2CC[C@H]1CN(c1ccc(NC(=O)c3csc(-c4c(-c5ccc(F)cc5)ncn4C4COC4)n3)nc1)C2 [Compound 51, 2-(4-(4-fluorophenyl)-1-(oxetan-3-yl)-1H-imidazol-5-yl)-N-(5-((1R,5S)-8-methyl-3,8-diazabicyclo[3.2.1]octan-3-yl)pyridin-2-yl)thiazole-4-carboxamide] | ++ (10-100 μM/min/mg as ++) | 1 to 12 nM |
